# Assay results from ChEMBL document CHEMBL3217476, “Binding region and interaction properties of sulfoquinovosylacylglycerol (SQAG) with human vascular endothelial growth factor 165 revealed by biosensor-based assays” (Medchemcomm, 2011).
# Calls of active or inactive are those of the source. The rule behind the calls is not given here.
# Assays:
# [1] = molecular target: T1, Vascular endothelial growth factor A, long form (Homo sapiens, UniProt P15692); experiment: Binding affinity to His-tagged human recombinant full length VEGF165 (amino acid residues A1 to R165) expressed in Escherichia coli BL21 (DE3) cells by surface plasmon resonance assay
# T1 sequence (P15692 whole entry): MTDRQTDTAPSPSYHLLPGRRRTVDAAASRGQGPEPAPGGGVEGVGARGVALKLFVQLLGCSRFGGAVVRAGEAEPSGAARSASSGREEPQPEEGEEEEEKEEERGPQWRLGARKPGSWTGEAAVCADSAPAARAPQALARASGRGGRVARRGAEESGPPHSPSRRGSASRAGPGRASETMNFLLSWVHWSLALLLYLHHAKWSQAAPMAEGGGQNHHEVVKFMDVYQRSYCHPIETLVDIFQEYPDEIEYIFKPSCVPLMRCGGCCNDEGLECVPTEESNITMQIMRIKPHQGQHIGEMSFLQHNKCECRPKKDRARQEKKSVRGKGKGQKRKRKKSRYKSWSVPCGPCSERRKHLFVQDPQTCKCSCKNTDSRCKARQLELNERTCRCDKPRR
# [2] = molecular target: T2, Vascular endothelial growth factor A, long form (Homo sapiens) (UniProt P15692); experiment: Inhibition of human VEGF165 heparin binding domain (amino acid residues A111 to R165) expressed in T7 phage/NRP1 interaction assessed as rescued phage titer ratio of del2 T7 phage particles at 10 uM preincubated with del2 T7 phage particles by QCM sensorgram analysis
# T2 sequence (whole entry): T1 sequence (P15692 whole entry)
# [3] = molecular target: T2, Vascular endothelial growth factor A, long form (Homo sapiens); experiment: Binding affinity to His-tagged human recombinant full length VEGF165 (amino acid residues A1 to R165) expressed in Escherichia coli BL21 (DE3) cells at 0.125 to 2 uM by surface plasmon resonance assay
# [4] = molecular target: T2, Vascular endothelial growth factor A, long form (Homo sapiens); experiment: Binding affinity to His-tagged human recombinant full length VEGF165 (amino acid residues A1 to R165) expressed in Escherichia coli BL21 (DE3) cells at 1.25 to 20 uM by surface plasmon resonance assay
# [5] = molecular target: Fibroblast growth factor 2 (Homo sapiens) (UniProt P09038); experiment: Binding affinity to human FGF2 (amino acid residues A1 to S154) at 0.125 to 2 uM by surface plasmon resonance assay
# [6] = system: Vascular endothelial growth factor A, long form (Homo sapiens), P15692 [UNDEFINED MUTATION]; experiment: Binding affinity to His-tagged human recombinant truncated del1 VEGF165 (amino acid residues A1 to R110) expressed in Escherichia coli BL21 (DE3) cells at 0.125 to 2 uM by surface plasmon resonance assay
# [7] = molecular target: T2, Vascular endothelial growth factor A, long form (Homo sapiens); experiment: Binding affinity to human VEGF165 heparin binding domain (amino acid residues A111 to R165) expressed in T7 phage assessed as increase in emergence ratio of del2 T7 phage particles from host Escherichia coli BLT5615 cells by QCM sensorgram analysis; assay type: cell-based
# [8] = molecular target: Vascular endothelial growth factor A, long form (Homo sapiens, UniProt P15692, EX4DEL); experiment: Binding affinity to His-tagged human recombinant truncated del4 VEGF165 (amino acid residues C137 to R165) expressed in Escherichia coli BL21 (DE3) cells by surface plasmon resonance assay
# [9] = molecular target: T2, Vascular endothelial growth factor A, long form (Homo sapiens); experiment: Inhibition of human VEGF165 heparin binding domain (amino acid residues A111 to R165) expressed in T7 phage/NRP1 interaction assessed as rescued phage titer ratio of del2 T7 phage particles at 1 uM preincubated with del2 T7 phage particles by QCM sensorgram analysis
# [10] = molecular target: Vascular endothelial growth factor receptor 1 (Homo sapiens) (UniProt P17948); experiment: Binding affinity to human VEGFR1 (amino acid residues S27 to I328) at 0.125 to 2 uM by surface plasmon resonance assay
# [11] = molecular target: T2, Vascular endothelial growth factor A, long form (Homo sapiens); experiment: Binding affinity to human VEGF121 (amino acid residues A1 to R121) at 0.125 to 2 uM by surface plasmon resonance assay
# [12] = molecular target: Ephrin type-B receptor 4 (Homo sapiens) (UniProt P54760); experiment: Binding affinity to human EphB4 (amino acid residues L16 to A539) at 0.125 to 2 uM by surface plasmon resonance assay
# [13] = molecular target: Bone morphogenetic protein 2 (Homo sapiens) (UniProt P12643); experiment: Binding affinity to human BMP-2 (amino acid residues M1 to R115) at 0.125 to 2 uM by surface plasmon resonance assay
# [14] = molecular target: T2, Vascular endothelial growth factor A, long form (Homo sapiens); experiment: Binding affinity to human VEGF165 C-terminal fragment of heparin binding domain (amino acid residues C137 to R165) expressed in T7 phage assessed as increase in emergence ratio of del4 T7 phage particles from host Escherichia coli BLT5615 cells by QCM sensorgram analysis; assay type: cell-based
# [15] = molecular target: Insulin-like growth factor 1 receptor (Homo sapiens) (UniProt P08069); experiment: Binding affinity to human IGF-1 receptor (amino acid residues E31 to N932) at 0.125 to 2 uM by surface plasmon resonance assay
# [16] = molecular target: Ephrin type-B receptor 2 (Homo sapiens) (UniProt P29323); experiment: Binding affinity to human EphB2 (amino acid residues V27 to K458) at 0.125 to 2 uM by surface plasmon resonance assay
# [17] = molecular target: Vascular endothelial growth factor A, long form (Homo sapiens, UniProt P15692, EX2DEL); experiment: Binding affinity to His-tagged human recombinant truncated del2 VEGF165 (amino acid residues A111 to R165) expressed in Escherichia coli BL21 (DE3) cells by surface plasmon resonance assay
# Homo sapiens [18] = species on record: Homo sapiens; experiment: Binding affinity to human sDLL-4 (amino acid residues S1 to P498) at 0.125 to 2 uM by surface plasmon resonance assay
# [19] = molecular target: Neuropilin-1 (Homo sapiens) (UniProt O14786); experiment: Binding affinity to human NRP1 (amino acid residues M1 to K644) at 0.125 to 2 uM by surface plasmon resonance assay
# [20] = molecular target: Bone morphogenetic protein receptor type-2 (Homo sapiens) (UniProt Q13873); experiment: Binding affinity to human BMPR2 (amino acid residues A26 to I151) at 0.125 to 2 uM by surface plasmon resonance assay
# [21] = molecular target: Neurogenic locus notch homolog protein 1 (Homo sapiens) (UniProt P46531); experiment: Binding affinity to human Notch-1 (amino acid residues A19 to Q526) at 0.125 to 2 uM by surface plasmon resonance assay
# [22] = molecular target: Protein jagged-1 (Homo sapiens) (UniProt P78504); experiment: Binding affinity to human Jagged-1 (amino acid residues S32 to S1046) at 0.125 to 2 uM by surface plasmon resonance assay
# [23] = molecular target: Angiopoietin-1 receptor (Homo sapiens) (UniProt Q02763); experiment: Binding affinity to human Tie-2 (amino acid residues A23 to K745) at 0.125 to 2 uM by surface plasmon resonance assay
# [24] = molecular target: DNA polymerase lambda (Homo sapiens) (UniProt Q9UGP5); experiment: Binding affinity to human DNA polymerase lambda (amino acid residues M1 to R95) by surface plasmon resonance assay
# Homo sapiens [25] = species on record: Homo sapiens; experiment: Binding affinity to human FGFR2 alpha (amino acid residues R22 to E378) at 0.125 to 2 uM by surface plasmon resonance assay
# [26] = molecular target: Transforming growth factor beta-2 proprotein (Homo sapiens) (UniProt P61812); experiment: Binding affinity to human TGFbeta2 (amino acid residues A1 to S112) at 0.125 to 2 uM by surface plasmon resonance assay
# [27] = molecular target: Platelet-derived growth factor receptor beta (Mus musculus) (UniProt P05622); experiment: Binding affinity to GST-fused mouse PDGFRB (amino acid residues L33 to E133) at 0.125 to 2 uM by surface plasmon resonance assay
# [28] = molecular target: Insulin-like growth factor 1 (Homo sapiens) (UniProt P05019); experiment: Binding affinity to human IGF-1 (amino acid residues G49 to A118) at 0.125 to 2 uM by surface plasmon resonance assay
# [29] = molecular target: Fibroblast growth factor 1 (Homo sapiens) (UniProt P05230); experiment: Binding affinity to human FGF1 (amino acid residues M1 to D141) at 0.125 to 2 uM by surface plasmon resonance assay
# [30] = molecular target: Angiopoietin-1 (Homo sapiens) (UniProt Q15389); experiment: Binding affinity to human Ang-1 (amino acid residues N21 to F496) at 0.125 to 2 uM by surface plasmon resonance assay
# [31] = molecular target: Vascular endothelial growth factor receptor 2 (Homo sapiens) (UniProt P35968); experiment: Binding affinity to human VEGFR2 (amino acid residues A20 to E764) at 0.125 to 2 uM by surface plasmon resonance assay
# [32] = system: Vascular endothelial growth factor A, long form (Homo sapiens), P15692 [UNDEFINED MUTATION]; experiment: Binding affinity to His-tagged human recombinant truncated del3 VEGF165 (amino acid residues A111 to T142) expressed in Escherichia coli BL21 (DE3) cells at 0.125 to 2 uM by surface plasmon resonance assay
# [33] = molecular target: Epidermal growth factor receptor (Homo sapiens) (UniProt P00533); experiment: Binding affinity to human EGFR (amino acid residues L25 to S645) at 0.125 to 2 uM by surface plasmon resonance assay
# [34] = molecular target: TGF-beta receptor type-2 (Homo sapiens) (UniProt P37173); experiment: Binding affinity to human TGFbetaR2 (amino acid residues M1 to D159) at 0.125 to 2 uM by surface plasmon resonance assay
# Homo sapiens [35] = species on record: Homo sapiens; experiment: Binding affinity to human PDGF-BB (amino acid residues S1 to T110) at 0.125 to 2 uM by surface plasmon resonance assay
# [36] = molecular target: Pro-epidermal growth factor (Homo sapiens) (UniProt P01133); experiment: Binding affinity to human EGF (amino acid residues N1 to R53) at 0.125 to 2 uM by surface plasmon resonance assay
structure (smiles),measurement,setting,value
CCCCCCCCCCCCCCCCCC(=O)OCC(O)CO[C@H]1O[C@H](CS(=O)(=O)O)[C@@H](O)[C@H](O)[C@H]1O (stereo not given in full),Kd,[1],18000 nM
same,inhibition,[2],Active
O=S(=O)(O)C[C@H]1O[C@@H](OCC(O)CO)[C@H](O)[C@@H](O)[C@@H]1O (stereo not given in full),Activity,[3],inactive
CCCCCCCCCCCCCCCCCC(=O)OCC(CO[C@@H]1O[C@H](CO)[C@@H](O)[C@H](O)[C@H]1O)OC(=O)CCCCCCCCCCCCCCCCC (stereo not given in full),Activity,[3],inactive
CCCCCCCCCCCCCCCCCC(=O)OCC(CO[C@H]1O[C@H](CS(=O)(=O)O)[C@@H](O)[C@H](O)[C@H]1O)OC(=O)CCCCCCCCCCCCCCCCC (stereo not given in full),Kd,[1],0.025 nM
CCCCCCCCCC(=O)OCC(O)CO[C@H]1O[C@H](CS(=O)(=O)O)[C@@H](O)[C@H](O)[C@H]1O (stereo not given in full),Activity,[4],inactive
CCCCCCCCCCCCCCCCCC(=O)OCC(CO[C@@H]1O[C@H](CS(=O)(=O)O)[C@@H](O)[C@H](O)[C@H]1O)OC(=O)CCCCCCCCCCCCCCCCC (stereo not given in full),Activity,[5],inactive
same,Activity,[6],inactive
same,Kd,[1],0.046 nM
same,Activity,[7],Active
same,Kd,[8],1400 nM
same,inhibition,[9],Active
same,Activity,[10],inactive
same,Activity,[11],inactive
same,Activity,[12],inactive
same,Activity,[13],inactive
same,Activity,[14],Active
same,Activity,[15],inactive
same,Activity,[16],inactive
same,Kd,[17],0.025 nM
same,Activity,Homo sapiens [18],inactive
same,Activity,[19],inactive
same,Activity,[20],inactive
same,Activity,[21],inactive
same,Activity,[22],inactive
same,Activity,[23],inactive
same,Kd,[24],9.9 nM
same,Activity,Homo sapiens [25],inactive
same,Activity,[26],inactive
same,Activity,[27],inactive
same,Activity,[28],inactive
same,Activity,[29],inactive
same,Activity,[30],inactive
same,Activity,[31],inactive
same,Activity,[32],inactive
same,Activity,[33],inactive
same,Activity,[34],inactive
same,Activity,Homo sapiens [35],inactive
same,Activity,[36],inactive
CCCCCCCCCCCCCCCCCC(=O)OCC(O)CO[C@@H]1O[C@H](CS(=O)(=O)O)[C@@H](O)[C@H](O)[C@H]1O (stereo not given in full),Kd,[1],16000 nM
